These results are taken from US9572794B2, “Substituted indoles as selective protease activated receptor 4 (PAR-4) antagonists” (Vanderbilt University, priority 2014, dated 2017).

As usually defined, the IC50 is the concentration at which inhibition is half-maximal. Low values mean higher potency, high ones lower potency.

This assay deals with T1, PAR4 (Homo sapiens, UniProt Q96RI0).
T1 construct: 60 μL of washed platelets (Tyrodes buffer containing 0.1% BSA); endogenous in cells
T1 sequence (Q96RI0 18-385): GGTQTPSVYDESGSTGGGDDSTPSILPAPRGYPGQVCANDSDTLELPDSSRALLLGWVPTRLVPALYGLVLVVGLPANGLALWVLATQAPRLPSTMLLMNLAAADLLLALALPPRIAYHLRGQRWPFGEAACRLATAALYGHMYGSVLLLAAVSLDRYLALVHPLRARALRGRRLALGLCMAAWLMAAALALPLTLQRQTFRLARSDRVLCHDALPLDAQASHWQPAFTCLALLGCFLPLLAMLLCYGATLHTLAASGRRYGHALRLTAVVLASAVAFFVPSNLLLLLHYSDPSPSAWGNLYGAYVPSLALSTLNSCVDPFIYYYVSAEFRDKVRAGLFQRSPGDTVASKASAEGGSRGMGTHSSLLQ
In words: PAC-1 Binding assay (antagonism of PAR4 mediated αIIBβ3 activation, flow cytometry). Conditions: for IC50: washed platelets stimulated with PAR4-AP, PAC-1 binding, sigmoidal dose response, variable slope; for % Max PAC-1: washed platelets, 100% response = DMSO treated control stimulated with 200 μM PAR4-AP, mean values. The assay is classed as cell-based. Here is the method: PAC-1 Binding assay: 60 μL of washed platelets (Tyrodes buffer containing 0.1% BSA) at a concentration of 0.15×10^8 platelets/mL were added to 5 mL round bottom polystyrene tubes (BD, Franklin Lakes, N.J.). FITC conjugated PAC-1 (BD Biosciences, San Jose, Calif.) antibody was diluted (to the manufacturers recommended concentration) in Tyrode's buffer containing 0.1% BSA. 40 μL of diluted antibody was added to the platelets and allowed to incubate for 5 minutes. Platelets were pre-treated with indicated concentrations of antagonist or DMSO control for 5 minutes followed by addition of PAR1-AP (GL Biochem, Shanghai, China) or PAR4-AP for 10 minutes. […] The final DMSO concentration was 0.5%. Platelets were stored up to 18 hours at 4° C. before flow cytometric analysis. Analysis was carried out on a BD FACS Canto II (Franklin Lakes, N.J.). Fluorescent intensity was determined for 100,000 events within the platelet gate. Data was collected and analyzed via FACS DiVa software. Flow cytometric data analysis was conducted by the following method. The DMSO-vehicle treated control was subtracted from each data point. 100% response for PAR4-AP was determined for each individual as the DMSO treated control stimulated with either 200 μM PAR4-AP, or 20 μM PAR1-AP. Data was plotted in GraphPad PRISM v.5.0. For compounds with a notable reduction in PAC-1 binding response, dose response curves and IC50 values were generated using the inhibitory sigmoidal dose response ‘variable slope’ parameter. PAR4 results are plotted as mean values.

Where only a bound is given, the exact number is not on record here.

As for `COc1ccc(-c2c(CO)n(Cc3ccc(F)cc3F)c3ccc(OC(F)(F)F)cc23)cn1` [Example B2], the IC50 turned out to be 0.823 µM and the “% Max PAC-1” value was found to be 19.7%.

`COc1ccc(-c2c(CO)n(CC3CSC(c4ccccc4)=N3)c3ccc(OC(F)(F)F)cc23)cn1` (stereo not drawn) [Example B69]: the “% Max PAC-1” value is 89.19%.

Turning to `CSc1ncc(-c2c(CO)n(Cc3ccc(F)cc3F)c3ccc(OC(F)(F)F)cc23)cn1` [Example B48], the IC50 was found to be 1.98 µM and the “% Max PAC-1” value stood at 14.5%.

As for `CSc1ncc(-c2c(CO)n(Cc3ccccc3Cl)c3cc(OC(F)(F)F)ccc23)cn1` [Example B71], the IC50 is 0.162 µM and the “% Max PAC-1” value worked out at 5.57%.

Turning to `COc1ncc(-c2c(CO)n(Cc3ccccc3Cl)c3ccc(OC(F)(F)F)cc23)cn1` [Example B54], the IC50 is 2.9 µM and the “% Max PAC-1” value came to 2.01%.

As for `COc1nn2cc(-c3c(CO)n(Cc4csc(-c5ccccc5)n4)c4ccc(OC(F)(F)F)cc34)nc2s1` [Example B74], the “% Max PAC-1” value worked out at 38.32%.

`OCc1c(-c2cncnc2)c2cc(OC(F)(F)F)ccc2n1Cc1ccc(F)cc1F` [Example B49]: the “% Max PAC-1” value was 96.0%.

On to `COc1cccc(Cn2c(CO)c(-c3ccc(OC)nc3)c3cc(OC(F)(F)F)ccc32)c1` [Example B11], for which the “% Max PAC-1” value is 40.9%.

For the compound `CCOc1ncc(-c2c(CO)n(Cc3ccccc3Cl)c3ccc(OC(F)(F)F)cc23)cn1` [Example B52], the “% Max PAC-1” value is reported as 24.0%.

As for `COc1cccc(Cn2c(CO)c(-c3ccc(OC)nc3)c3cc(C(F)(F)F)ccc32)c1` [Example B13, (1-(3-methoxybenzyl)-3-(6-methoxypyridin-3-yl)-5-(trifluoromethyl)-1H-indol-2-yl)methanol], the “% Max PAC-1” value is on record as 108.5%.

Turning to `COc1ccc(-c2c(CO)n(Cc3cccc(Cl)c3)c3ccc(OC(F)(F)F)cc23)cn1` [Example B12], the “% Max PAC-1” value is given as 27.8%.

Consider `COc1ccc(-c2c(CO)n(Cc3ccccn3)c3ccc(C#N)cc23)cn1` [Example B26], for which the “% Max PAC-1” value was 113.7%.

In the case of `COc1ccc(-c2c(CO)n(Cc3cccc(C(F)(F)F)c3)c3ccc(OC(F)(F)F)cc23)cn1` [Example B3], the “% Max PAC-1” value is listed as 59.7%.

Turning to `COc1ncc(-c2c(CO)n(Cc3ccc(F)cc3F)c3ccc(OC(F)(F)F)cc23)cn1` [Example B56], the IC50 is more than 10 µM and the “% Max PAC-1” value was 53.7%.

With `CCOc1ccc2c(-c3ccc(OC)nc3)c(CO)n(Cc3ccccc3Cl)c2c1` [Example B61], the IC50 was found to be 3.84 µM and the “% Max PAC-1” value is 19.78%.

As for `COc1ccc(-c2c(CO)n(Cc3cccc(Br)c3)c3cc4c(cc23)OCO4)cn1` [Example B44], the “% Max PAC-1” value is given as 96.5%.

With `CCOc1ncc(-c2c(CO)n(Cc3ccc(F)cc3F)c3ccc(OC(F)(F)F)cc23)cn1` [Example B51], the “% Max PAC-1” value is on record as 48.5%.

Take `COc1ccc2c(-c3ccc(OC)nc3)c(CO)n(Cc3ccccc3Cl)c2c1` [Example B59]: the IC50 came out at 1.35 µM and the “% Max PAC-1” value came out at 4.31%.

Take `COc1ccc(-c2c(CO)n(Cc3ccccn3)c3cc4c(cc23)OCO4)cn1` [Example B38]: the “% Max PAC-1” value came to 107.2%.

As for `COc1ccc(-c2c(CO)n(Cc3cccc(Br)c3)c3ccc(OC(F)(F)F)cc23)cn1` [Example B7], the “% Max PAC-1” value worked out at 27.2%.

For the compound `COc1ccc(-c2c(CO)n(Cc3ccc(F)cc3F)c3ccc(C#N)cc23)cn1` [Example B33], the “% Max PAC-1” value is 105.0%.

On to `OCc1c(-c2ccc(F)nc2)c2cc(OC(F)(F)F)ccc2n1Cc1ccc(F)cc1F` [Example B53], for which the “% Max PAC-1” value was determined as 48.2%.

Consider `COc1ccc(-c2c(CO)n(Cc3ccccn3)c3ccc(S(C)(=O)=O)cc23)cn1` [Example B27], for which the “% Max PAC-1” value was 100.1%.

As to `CSc1ncc(-c2c(CO)n(Cc3ccccc3Cl)c3cc(OC(C)C)ccc23)cn1` [Example B64], the IC50 is 1.38 µM and the “% Max PAC-1” value was 18.53%.

For the compound `COc1ccc(-c2c(CO)n(Cc3cccc(Br)c3)c3ccc(S(C)(=O)=O)cc23)cn1` [Example B21], the “% Max PAC-1” value was found to be 74.3%.

Take `COc1ccc(-c2c(CO)n(Cc3ccccc3F)c3ccc(OC(F)(F)F)cc23)cn1` [Example B6]: the “% Max PAC-1” value is listed as 89.0%.

With `CCOc1ccc2c(-c3cnc(SC)nc3)c(CO)n(Cc3ccccc3Cl)c2c1` [Example B63], the IC50 came to 2.15 µM and the “% Max PAC-1” value was 14.77%.

Consider `COc1ccc2c(-c3cnc(SC)nc3)c(CO)n(Cc3ccccc3Cl)c2c1` [Example B60], for which the IC50 is 4.3 µM and the “% Max PAC-1” value is 21.33%.

For `COc1ccc(-c2c(CO)n(Cc3csc(-c4ccccc4)n3)c3ccc(OC(F)(F)F)cc23)cn1` [Example B68], the “% Max PAC-1” value turned out to be 61.98%.

Regarding `CSc1ccc(-c2c(CO)n(Cc3ccccc3Cl)c3ccc(OC(F)(F)F)cc23)cn1` [Example B76], the “% Max PAC-1” value was 79.22%.

As to `COc1ccc(-c2c(CO)n(Cc3ccc(C#N)cc3F)c3cc4c(cc23)OCO4)cn1` [Example B40], the “% Max PAC-1” value was found to be 98.6%.

In the case of `OCc1c(-c2ccncc2)c2cc(OC(F)(F)F)ccc2n1Cc1ccc(F)cc1F` [Example B58], the “% Max PAC-1” value was 102.2%.

Consider `COc1ccc(-c2c(CO)n(Cc3ccccc3)c3cc(OC(C)C)ccc23)cn1` [Example B72], for which the “% Max PAC-1” value turned out to be 81.76%.

In the case of `COc1cc(Cn2c(CO)c(-c3ccc(OC)nc3)c3cc(OC(F)(F)F)ccc32)cc(OC)c1` [Example B10], the “% Max PAC-1” value was 110.6%.

With `COc1nn2cc(-c3c(CO)n(Cc4ccccc4Cl)c4ccc(OC(F)(F)F)cc34)nc2s1` [Example B75, (1-(2-chlorobenzyl)-3-(2-methoxyimidazo[2,1-b][1,3,4]thiadiazol-6-yl)-5-(trifluoromethoxy)-1H-indol-2-yl)methanol], the half-inhibitory concentration (IC50) turned out to be 0.184 µM and the “% Max PAC-1” value is on record as 8.40%.

On to `COc1ccc(-c2c(CO)n(Cc3ccccc3Cl)c3cc(OC(F)(F)F)ccc23)cn1` [Example B65], for which the IC50 amounted to 0.966 µM and the “% Max PAC-1” value turned out to be 12.25%.

As to `OCc1c(-c2ccncc2)c2cc(OC(F)(F)F)ccc2n1Cc1ccccc1Cl` [Example B47], the “% Max PAC-1” value was 101.7%.

Take `COc1cccc(Cn2c(CO)c(-c3ccc(OC)nc3)c3cc4c(cc32)OCO4)c1` [Example B45]: the “% Max PAC-1” value is on record as 129.1%.

As to `COc1ccc(-c2c(CO)n(Cc3cc(F)cc(F)c3)c3ccc(OC(F)(F)F)cc23)cn1` [Example B5], the “% Max PAC-1” value is recorded as 36.5%.

Consider `COc1ccc(-c2c(CO)n(Cc3cccc(F)c3)c3ccc(OC(F)(F)F)cc23)cn1` [Example B1], for which the “% Max PAC-1” value is reported as 80.6%.

`COc1ccc(-c2c(CO)n(Cc3cccc(Br)c3)c3ccc(C#N)cc23)cn1` [Example B31]: the “% Max PAC-1” value is on record as 109.1%.

Consider `COc1ccc(-c2c(CO)n(Cc3cccc(Cl)c3)c3cc4c(cc23)OCO4)cn1` [Example B39], for which the “% Max PAC-1” value worked out at 100.1%.

Regarding `COc1ccc(-c2c(CO)[nH]c3ccc(OC(F)(F)F)cc23)cn1` [Example B67], the “% Max PAC-1” value was determined as 116.1%.

Turning to `COc1ccc(-c2c(CO)n(Cc3ccccc3Cl)c3cc(OC(C)C)ccc23)cn1` [Example B66], the “% Max PAC-1” value is on record as 59.45%.

For the compound `COc1ccc(-c2c(COCc3csc(-c4ccccc4)n3)n(Cc3csc(-c4ccccc4)n3)c3ccc(OC(F)(F)F)cc23)cn1` [Example B70], the “% Max PAC-1” value is 61.82%.

With `OCc1c(-c2ccc(F)nc2)c2cc(OC(F)(F)F)ccc2n1Cc1ccccc1Cl` [Example B57], the IC50 came to 1.29 µM and the “% Max PAC-1” value amounted to 21.05%.

With `OCc1c(-c2cncnc2)c2cc(OC(F)(F)F)ccc2n1Cc1ccccc1Cl` [Example B55], the “% Max PAC-1” value amounted to 101.8%.

Take `CSc1ccc(-c2c(CO)n(Cc3ccccc3Cl)c3ccc(OC(F)(F)F)cc23)cc1` [Example B73]: the “% Max PAC-1” value was 107.63%.

Consider `COc1ccc(-c2c(CO)n(Cc3ccccc3)c3ccc(OC(F)(F)F)cc23)cn1` [Example B4], for which the “% Max PAC-1” value is reported as 53.4%.

Consider `COc1ccc(-c2c(CO)n(Cc3ccccc3)c3cc(OC(F)(F)F)ccc23)cn1` [Example B62], for which the IC50 amounted to 3.71 µM and the “% Max PAC-1” value is 34.32%.

For the compound `COc1ccc(-c2c(CO)n(C)c3ccc(OC(F)(F)F)cc23)cn1` [Example B8], the “% Max PAC-1” value worked out at 93.9%.

With `COc1ccc(-c2c(CO)n(Cc3ccc(C#N)cc3F)c3ccc(C#N)cc23)cn1` [Example B36], the “% Max PAC-1” value is given as 108.8%.
